Measurements from PubChem BioAssay (NCI).
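How tested: cells in 96-well plates exposed to compound for 48 hours at five concentrations. TGI is the concentration that stops growth completely.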

How the values were obtained:
Test in all cases: NCI anticancer screen, dose series, 48 h
[1] = tested on: M14 melanoma
[2] = tested on: SF-268 CNS
[3] = tested on: RPMI-8226 leukemia
[4] = tested on: CCRF-CEM leukemia
[5] = tested on: UACC-257 melanoma
[6] = tested on: SR leukemia
[7] = tested on: 786-0 renal
[8] = tested on: SF-539 CNS
[9] = tested on: NCI-H226 lung
[10] = tested on: HCC-2998 colon

Compound | TGI [1] [µM] | TGI [2] [µM] | TGI [3] [µM] | TGI [4] [µM] | TGI [5] [µM] | TGI [6] [µM] | TGI [7] [µM] | TGI [8] [µM] | TGI [9] [µM] | TGI [10] [µM]
Cc1cc2cc3c(cc2c(-c2ccc(N)cc2)n1)OCO3 | > 100 | 79.3 | 73.7 | > 100 | > 100 | 52.5 | 57.4 | > 100 | – | –
Cc1nc(-c2cc3cc(Cl)ccc3oc2=O)cc2c1c(=O)oc1ccc(Cl)cc12 | > 100 | > 100 | > 100 | > 100 | > 100 | > 100 | > 100 | – | > 100 | > 100
CC1CC/C(=C\c2ccc(Cl)cc2)c2nc(N)c(C#N)c(-c3ccc(Cl)cc3)c21 (stereo not given) | > 100 | – | > 100 | > 100 | > 100 | > 100 | > 100 | > 100 | > 100 | > 100
COc1c(C)c(C/C=C(\C)CC/C=C(\C)CCC=C(C)C)c(OC)c(OC)c1OC | > 100 | > 100 | – | > 100 | > 100 | > 100 | > 100 | > 100 | – | > 100
NC(=O)CO/N=C1/C(c2c(O)[nH]c3ccccc23)=Nc2ccccc21 | > 100 | > 100 | > 100 | > 100 | > 100 | > 56.9 | > 100 | > 100 | > 100 | –
C#CCC1(C(=O)OCC)C(=O)c2ccccc2N(C)C1=O (stereo not given) | > 100 | > 100 | > 100 | > 100 | – | – | – | > 100 | > 100 | –
CO[C@H]1C[C@H](O[C@H]2CC[C@]3(C=O)[C@H]4CC[C@]5(C)[C@@H](C6=CC(=O)OC6)CC[C@]5(O)[C@@H]4CC[C@]3(O)C2)O[C@H](C)[C@H]1O | 4.19 | 0.577 | 6.6 | > 100 | 1.43 | – | 1.57 | 0.218 | 1.28 | 8.36
CC(C)OC1OC(CO)C(O)CC1n1cc(F)c(=O)[nH]c1=O (stereo not given) | > 100 | > 100 | > 100 | – | > 100 | – | > 100 | > 100 | > 100 | > 100
NCCC1CN(C(=O)OCc2ccccc2)c2ccccc21 (stereo not given) | 27.4 | 39.4 | 46.6 | – | 37.8 | 10.1 | 29.8 | 14.4 | 26.8 | 33.9
CCOC(=O)C1(C(F)(F)F)N=C(CC)OC(N2CCOCC2)=N1 (stereo not given) | > 100 | > 100 | > 100 | > 100 | > 100 | > 100 | – | > 100 | – | > 100
CN(C)c1ccc(/C=C2\N=C(c3ccccc3)N(c3ccc4c(c3)Sc3cc(N5C(=O)/C(=C/c6ccc(N(C)C)cc6)N=C5c5ccccc5)ccc3N4)C2=O)cc1 | 40.7 | 37.3 | 51.4 | 20.1 | 38.2 | > 100 | 45.6 | 32.8 | – | 37.9
CSc1nc(NC(C)C)c2c(n1)Sc1nc3ccccc3n1C2O (stereo not given) | > 100 | > 100 | 12.5 | 4.95 | > 100 | > 100 | > 100 | – | – | > 100
